Reference: ChEMBL document CHEMBL5550102, “Caged xanthone derivatives to promote mitochondria-mediated apoptosis in breast cancer cells” (Bioorg Med Chem, 2024)

What was measured:
HepG2 = assay: Cytotoxicity against human HepG2 cells incubated for 72 hrs by CCK8 assay; type: functional, cell-based; settings: HepG2, 72 h
MDA-MB-231 [1] = assay: Induction of cell cycle arrest at G2/M phase in human MDA-MB-231 cells at 20 uM incubated for 12 to 24 hrs by PI/RNase staining based flow cytometry relative to control; type: functional; settings: time 12-24 hrs
MDA-MB-231 [2] = assay: Induction of apoptosis in human MDA-MB-231 cells assessed as necrotic cells at 15 uM incubated for 48 hrs by Annexin V-FITC/PI staining based flow cytometry (reference value: 0.33 %); type: functional
MDA-MB-231 [3] = assay: Induction of apoptosis in human MDA-MB-231 cells assessed as viable cells at 20 uM incubated for 24 hrs by Annexin V-FITC/PI staining based flow cytometry (reference value: 88.2 %); type: functional; settings: read-out: Activity
MDA-MB-231 [4] = assay: Induction of apoptosis in human MDA-MB-231 cells assessed as early apoptotic cells at 20 uM incubated for 48 hrs by Annexin V-FITC/PI staining based flow cytometry (reference value: 5.72 %); type: functional
MDA-MB-231 [5] = assay: Induction of cell cycle arrest at G2/M phase in human MDA-MB-231 cells incubated for 12 to 24 hrs by PI/RNase staining based flow cytometry; type: functional; settings: dose <= 20.0 µM, time 12-24 hrs
MDA-MB-231 [6] = assay: Induction of apoptosis in human MDA-MB-231 cells assessed as early apoptotic cells at 17.5 uM incubated for 48 hrs by Annexin V-FITC/PI staining based flow cytometry (reference value: 5.72 %); type: functional
MDA-MB-231 [7] = assay: Induction of apoptosis in human MDA-MB-231 cells assessed as necrotic cells at 15 uM incubated for 24 hrs by Annexin V-FITC/PI staining based flow cytometry (reference value: 1.06 %); type: functional
MDA-MB-231 [8] = assay: Induction of apoptosis in human MDA-MB-231 cells assessed as necrotic cells at 17.5 uM incubated for 48 hrs by Annexin V-FITC/PI staining based flow cytometry (reference value: 0.33 %); type: functional
MDA-MB-231 [9] = assay: Induction of apoptosis in human MDA-MB-231 cells assessed as necrotic cells at 20 uM incubated for 48 hrs by Annexin V-FITC/PI staining based flow cytometry (reference value: 0.33 %); type: functional
MDA-MB-231 [10] = assay: Induction of apoptosis in human MDA-MB-231 cells assessed as late apoptotic cells at 17.5 uM incubated for 48 hrs by Annexin V-FITC/PI staining based flow cytometry (reference value: 2.79 %); type: functional
MDA-MB-231 [11] = assay: Induction of apoptosis in human MDA-MB-231 cells assessed as necrotic cells at 17.5 uM incubated for 24 hrs by Annexin V-FITC/PI staining based flow cytometry (reference value: 1.06 %); type: functional
MDA-MB-231 [12] = assay: Induction of apoptosis in human MDA-MB-231 cells assessed as viable cells at 20 uM incubated for 48 hrs by Annexin V-FITC/PI staining based flow cytometry (reference value: 91.2 %); type: functional; settings: read-out: Activity
MDA-MB-231 [13] = assay: Induction of apoptosis in human MDA-MB-231 cells assessed as early apoptotic cells at 15 uM incubated for 24 hrs by Annexin V-FITC/PI staining based flow cytometry (reference value: 7.39 %); type: functional
MDA-MB-231 [14] = assay: Induction of mitochondrial dysfunction in human MDA-MB-231 cells assessed as cell with low mitochondrial membrane potential at 20 uM incubated for 48 hrs by JC-1 staining based flow cytometry (reference value: 2.50 %); type: functional
MDA-MB-231 [15] = assay: Induction of apoptosis in human MDA-MB-231 cells assessed as late apoptotic cells at 15 uM incubated for 48 hrs by Annexin V-FITC/PI staining based flow cytometry (reference value: 2.79 %); type: functional
MDA-MB-231 [16] = assay: Induction of apoptosis in human MDA-MB-231 cells assessed as increase in cleaved caspase-9 level incubated for 24 to 48 hrs by Western blot analysis; type: functional, cell-based; settings: dose <= 20.0 µM, time 24-48 hrs
MDA-MB-231 [17] = assay: Induction of apoptosis in human MDA-MB-231 cells assessed as late apoptotic cells at 15 uM incubated for 24 hrs by Annexin V-FITC/PI staining based flow cytometry (reference value: 3.36 %); type: functional
MDA-MB-231 [18] = assay: Induction of apoptosis in human MDA-MB-231 cells assessed as viable cells at 17.5 uM incubated for 24 hrs by Annexin V-FITC/PI staining based flow cytometry (reference value: 88.2 %); type: functional; settings: read-out: Activity
MDA-MB-231 [19] = assay: Cytotoxicity against human MDA-MB-231 cells incubated for 72 hrs by CCK8 assay; type: functional, cell-based; settings: MDA-MB-231, 72 h
MDA-MB-231 [20] = assay: Induction of apoptosis in human MDA-MB-231 cells assessed as late apoptotic cells at 20 uM incubated for 48 hrs by Annexin V-FITC/PI staining based flow cytometry (reference value: 2.79 %); type: functional
MDA-MB-231 [21] = assay: Induction of apoptosis in human MDA-MB-231 cells assessed as early apoptotic cells at 15 uM incubated for 48 hrs by Annexin V-FITC/PI staining based flow cytometry (reference value: 5.72 %); type: functional
MDA-MB-231 [22] = assay: Induction of apoptosis in human MDA-MB-231 cells assessed as viable cells at 15 uM incubated for 48 hrs by Annexin V-FITC/PI staining based flow cytometry (reference value: 91.2 %); type: functional; settings: read-out: Activity
MDA-MB-231 [23] = assay: Induction of mitochondrial dysfunction in human MDA-MB-231 cells assessed as cell with low mitochondrial membrane potential at 15 uM incubated for 48 hrs by JC-1 staining based flow cytometry (reference value: 2.50 %); type: functional
MDA-MB-231 [24] = assay: Induction of apoptosis in human MDA-MB-231 cells assessed as early apoptotic cells at 17.5 uM incubated for 24 hrs by Annexin V-FITC/PI staining based flow cytometry (reference value: 7.39 %); type: functional
MDA-MB-231 [25] = assay: Induction of apoptosis in human MDA-MB-231 cells assessed as viable cells at 15 uM incubated for 24 hrs by Annexin V-FITC/PI staining based flow cytometry (reference value: 88.2 %); type: functional; settings: read-out: Activity
MDA-MB-231 [26] = assay: Induction of apoptosis in human MDA-MB-231 cells assessed as viable cells at 17.5 uM incubated for 48 hrs by Annexin V-FITC/PI staining based flow cytometry (reference value: 91.2 %); type: functional; settings: read-out: Activity
MDA-MB-231 [27] = assay: Induction of apoptosis in human MDA-MB-231 cells assessed as necrotic cells at 20 uM incubated for 24 hrs by Annexin V-FITC/PI staining based flow cytometry (reference value: 1.06 %); type: functional
MDA-MB-231 [28] = assay: Induction of apoptosis in human MDA-MB-231 cells assessed as increase in cleaved caspase-9 level upto 20 uM by Western blot analysis; type: functional, cell-based; settings: time 24-48 hrs, TDE = time-dependent effect
MDA-MB-231 [29] = assay: Induction of apoptosis in human MDA-MB-231 cells assessed as late apoptotic cells at 17.5 uM incubated for 24 hrs by Annexin V-FITC/PI staining based flow cytometry (reference value: 3.36 %); type: functional
A549 = assay: Cytotoxicity against human A549 cells incubated for 72 hrs by CCK8 assay; type: functional, cell-based; settings: A549, 72 h
MDA-MB-231 [30] = assay: Induction of mitochondrial dysfunction in human MDA-MB-231 cells assessed as cell with low mitochondrial membrane potential at 17.5 uM incubated for 48 hrs by JC-1 staining based flow cytometry (reference value: 2.50 %); type: functional
MDA-MB-231 [31] = assay: Induction of apoptosis in human MDA-MB-231 cells assessed as late apoptotic cells at 20 uM incubated for 24 hrs by Annexin V-FITC/PI staining based flow cytometry (reference value: 3.36 %); type: functional
MDA-MB-231 [32] = assay: Induction of mitochondrial dysfunction in human MDA-MB-231 cells assessed as cell with low mitochondrial membrane potential at 20 uM incubated for 24 hrs by JC-1 staining based flow cytometry (reference value: 3.68 %); type: functional
MDA-MB-231 [33] = assay: Induction of mitochondrial dysfunction in human MDA-MB-231 cells assessed as cell with low mitochondrial membrane potential at 17.5 uM incubated for 24 hrs by JC-1 staining based flow cytometry (reference value: 3.68 %); type: functional
MDA-MB-231 [34] = assay: Induction of mitochondrial dysfunction in human MDA-MB-231 cells assessed as cell with low mitochondrial membrane potential at 15 uM incubated for 24 hrs by JC-1 staining based flow cytometry (reference value: 3.68 %); type: functional
MDA-MB-231 [35] = assay: Induction of apoptosis in human MDA-MB-231 cells assessed as early apoptotic cells at 20 uM incubated for 24 hrs by Annexin V-FITC/PI staining based flow cytometry (reference value: 7.39 %); type: functional

COC(=O)C[C@]12C=C3C(=O)c4ccccc4O[C@@]3(CC1)[C@H]1C(=O)N(c3ccc(C(F)(F)F)cc3)C(=O)[C@H]12
IC50 (HepG2): 15.9 µM
Activity (MDA-MB-231 [1]): >15%
Activity (MDA-MB-231 [2]): 0.7%
viability at 20 µM (MDA-MB-231 [3]): 62.1%
Activity (MDA-MB-231 [4]): 56.9%
Activity (MDA-MB-231 [5]): Dose-Dependent Effect
Activity (MDA-MB-231 [6]): 43.4%
Activity (MDA-MB-231 [7]): 0.98%
Activity (MDA-MB-231 [8]): 1.38%
Activity (MDA-MB-231 [9]): 1.87%
Activity (MDA-MB-231 [10]): 14.5%
Activity (MDA-MB-231 [11]): 1.7%
viability at 20 µM (MDA-MB-231 [12]): 26%
Activity (MDA-MB-231 [13]): 9.01%
Activity (MDA-MB-231 [14]): 96.87%
Activity (MDA-MB-231 [15]): 7.51%
Activity (MDA-MB-231 [16]): Dose-Dependent Effect
Activity (MDA-MB-231 [17]): 5.84%
viability at 17.5 µM (MDA-MB-231 [18]): 72.8%
IC50 (MDA-MB-231 [19]): 13 µM
Activity (MDA-MB-231 [20]): 15.2%
Activity (MDA-MB-231 [21]): 24.4%
viability at 15 µM (MDA-MB-231 [22]): 67.4%
Activity (MDA-MB-231 [23]): 70.23%
Activity (MDA-MB-231 [24]): 15.3%
viability at 15 µM (MDA-MB-231 [25]): 84.2%
viability at 17.5 µM (MDA-MB-231 [26]): 40.7%
Activity (MDA-MB-231 [27]): 2.33%
Activity (MDA-MB-231 [28]): Tde
Activity (MDA-MB-231 [29]): 10.3%
IC50 (A549): 19.3 µM
Activity (MDA-MB-231 [30]): 92.63%
Activity (MDA-MB-231 [31]): 16.8%
Activity (MDA-MB-231 [32]): 59.57%
Activity (MDA-MB-231 [33]): 53%
Activity (MDA-MB-231 [34]): 29.07%
Activity (MDA-MB-231 [35]): 18.8%

CC(=O)O[C@H]1C(=O)[C@@]2(C)[C@H]([C@H](OC(=O)c3ccccc3)[C@]3(O)C[C@H](OC(=O)[C@H](O)[C@@H](NC(=O)c4ccccc4)c4ccccc4)C(C)=C1C3(C)C)[C@]1(OC(C)=O)CO[C@@H]1C[C@@H]2O [PACLITAXEL]
IC50 (HepG2): 0.06 µM
IC50 (MDA-MB-231 [19]): 0.11 µM
IC50 (A549): 0.4 µM

COC(=O)C[C@]12C=C3C(=O)c4cccc(C)c4O[C@@]3(CC1)[C@H]1C(=O)N(c3ccc(C(F)(F)F)cc3)C(=O)[C@H]12
IC50 (HepG2): 32.9 µM
IC50 (MDA-MB-231 [19]): 27 µM
IC50 (A549): 40.1 µM

COC(=O)C[C@]12C=C3C(=O)c4ccccc4O[C@@]3(CC1)[C@H]1C(=O)N(Cc3ccccc3)C(=O)[C@H]12
IC50 (HepG2): > 50 µM
IC50 (MDA-MB-231 [19]): > 50 µM
IC50 (A549): > 50 µM

COC(=O)C[C@]12C=C3C(=O)c4ccccc4O[C@@]3(CC1)[C@H]1C(=O)N(C(C)(C)C)C(=O)[C@H]12
IC50 (HepG2): > 50 µM
IC50 (MDA-MB-231 [19]): > 50 µM
IC50 (A549): > 50 µM

COC(=O)C[C@]12C=C3C(=O)c4cc(F)ccc4O[C@@]3(CC1)[C@H]1C(=O)N(c3ccc(C(F)(F)F)cc3)C(=O)[C@H]12
IC50 (HepG2): > 50 µM
IC50 (MDA-MB-231 [19]): > 50 µM
IC50 (A549): > 50 µM

COC(=O)C[C@]12C=C3C(=O)c4cc(F)ccc4O[C@@]3(CC1)[C@H]1C(=O)N(c3ccc(Br)cc3)C(=O)[C@H]12
IC50 (HepG2): > 50 µM
IC50 (MDA-MB-231 [19]): > 50 µM
IC50 (A549): > 50 µM
